Experimental data reported in article PMC8907111 (Biochemical and Biophysical Research Communications, 2022).

Biological target: SARS-CoV-2 M^pro (Severe acute respiratory syndrome coronavirus 2, UniProt P0DTD1)
Experiment: FRET protease enzymatic inhibition assay
Type: biochemical
Conditions: for M^pro Inhibition rate at 50 μM: compound at 50 μM, FRET assay; for inhibition at 50 µM: read-out: M^pro Inhibition rate at 50 μM

Q: How did the “M^pro Inhibition rate at 50 μM” value turn out when COc1ccc(-c2cc(=O)c3c(OC)c(OC)c(OC)cc3o2)cc1 [Compound 7, 5,6,7,4'-tetramethoxyflavone] was run?
A: reduced rates of inhibition

Q: For COc1ccc(-c2cc(=O)c3c(O)c(OC)c(O)cc3o2)cc1 [Compound 3, Pectolinarigenin], which “M^pro Inhibition rate at 50 μM” value is on record?
A: reduced rates of inhibition

Q: COc1c(O)cc2oc(-c3ccc(O)cc3)cc(=O)c2c1O [Compound 2, Hispidulin] was tested. Which “M^pro Inhibition rate at 50 μM” value did it give?
A: reduced rates of inhibition

Q: COc1ccc(-c2cc(=O)c3c(O)c(OC)c(OC)cc3o2)cc1 [Compound 6, Salvigenin] was tested. Which “M^pro Inhibition rate at 50 μM” value did it give?
A: reduced rates of inhibition

Q: For O=c1cc(-c2ccc(O)cc2)oc2cc(O)c(O)c(O)c12 [Compound 1, Scutellarein], which inhibition at 50 µM is on record?
A: 102%

Q: With COc1ccc(-c2cc(=O)c3c(OC)c(O)c(O)cc3o2)cc1 [Compound 5, 6,7-dihydroxy-5-methoxy-2-(4-methoxyphenyl) chromone] as the molecule, how does the IC50 read?
A: 16.7 ± 2.09 µM

Q: O=c1cc(-c2ccccc2)oc2cc(O)c(O)c(O)c12 [Compound 8, Baicalein, reference compound] was tested. Which inhibition at 50 µM did it give?
A: 103%
